Assay results from patent publication US6346529B1, “Antiviral therapy using thiazine dyes” (Oklahoma Medical Research Foundation, priority 1988, dated 2002).

How the values were obtained:
Format in all cases: cell-based
HIV (LAV-I) = experiment: HIV in human PBMC, P24 levels by EIA
Experimental: While the previous example measured RT activity, the present example utilizes a direct quantitation of a viral protein (P24) as an indicator of antiviral effectiveness.
Peripheral blood mononuclear (PBM) cells were infected with HIV and treated with methylene blue as described above. The EC50 levels were calculated from enzyme immuno-assay (EIA) measurements of viral coat protein P24. The P24-specific EIA kit was purchased from Abbott Labs.

HSV-2 (G strain) = experiment: HSV plaque reduction assay in Vero cells, HSV-2; conditions: Human alphaherpesvirus 2, Vero, light/dark not stated; read-out: Antiviral Effect: EC50 HSV-2
Experimental: (§1) HSV Preparation: Confluent HEp-2 cells, in a roller bottle (Falcon, 850 cm^2), were infected at an input multiplicity of 0.01 PFU per cell (to minimize production of defective viruses). During the two-hour absorption period, the cells were exposed to the virus inoculum diluted in absorption buffer (10 ml PBS containing 1% newborn calf serum and 0.1% glucose). The virus inoculum was then removed and replaced with Hanks' Minimum Essential Medium (MEM) containing 2% inactivated newborn calf serum, penicillin (100 U/ml) and streptomycin (100 μg/ml) (P and S), sodium bicarbonate (2 g/L) and HEPES (25 mM) (maintenance medium). The infected cells were incubated at 37° C. for 3 to 4 days, until the cells could be easily shaken from the plastic surface of the culture bottles. The cells were then collected by centrifugation, suspended in a small volume of spent culture fluid (5 ml per 2×10^8 cells) and sonicated 3 times for one min on ice. The disrupted cells were centrifuged (2,000 g for 15 min at 4° C. and the supernatant was diluted with an equal volume of sterile skimmed milk (as stabilizer) and aliquots were frozen at −70° C.
(§2) HSV Plaque Reduction Assay: Near confluent Vero (African Green Monkey) cells in 6-well plates were infected with 100 μl virus diluted in absorption buffer to give 100-200 plaques per well. The plates were then incubated at 37° C. for 1 hour with intermittent rocking every 15 minutes. The inoculum was aspirated and the compounds at different concentrations (dissolved in maintenance medium) were added to replicate wells. For these assays, 0.1% pooled human gamma globulin was included in the media. The plates were placed in 5% CO2-95% air incubator and the plaques were allowed to develop for 48 h prior to fixation (buffered 10% Formalin acetate), staining (0.5% crystal violet in 20% EtOH/H2O) and enumeration. The degree of inhibition (percent plaques of control) was calculated by counting the mean plaque counts for the different drug dilutions. […] For routine antiviral drug screening, we used the F strain of HSV-1 and the G strain of HSV-2 (Ejercito, et al., “Characterization of Herpes Simplex virus Strains Differing in Their Effect on Social Behavior of Infected Cells,” J. Gen. Virol. 2, 357-364 (1968)). […] Acyclovir (ACV) was used as a positive control for the studies on HSV.
(§3) Median-Effect Method: EC50 and IC50 values were obtained by analysis of the data using the median-effect equation (Chou, T., et al., “Quantitative Analysis of Dose-Effect Relationships: The Combined Effects of Multiple Drugs or Enzyme Inhibitors,” Adv. Enz. Regul. 22, 27-55 (1984).

HSV-1 (F strain) = experiment: HSV plaque reduction assay in Vero cells, HSV-1; conditions: Human alphaherpesvirus 1, Vero, light/dark not stated; read-out: Antiviral Effect: EC50 HSV-1
Experimental: as §1, §2, §3

HIV-1 (strain LAV-1) = experiment: Inhibition of HIV-1 replication in human PBMC (supernatant RT activity); conditions: Human immunodeficiency virus 1, PBMC; light/dark not stated; read-out: Antiviral Effect: EC50 HIV-1
Experimental: Cells: Human peripheral blood mononuclear cells (PBMC) from healthy HIV-1 seronegative and hepatitis B virus seronegative donors were isolated by Ficoll-Hypaque discontinuous gradient centrifugation at 1,000×g for 30 minutes, washed twice in phosphate-buffered saline (pH 7.2; PBS), and pelleted at 300×g for 10 minutes. Before infection, the cells were stimulated by phytohemagglutinin (PHA) at a concentration of 16.7 μg/ml, and 4 mM sodium bicarbonate buffer.
Retrovirus: HIV-1 (strain LAV-1) was obtained from Dr. P. Feorino (Centers for Disease Control, Atlanta, Ga.). The virus was propagated in human PBMC using RPMI 1640 medium, as described previously by McDougal, et al., (“Immunoassay for the detection and quantitation of infectious human retrovirus, lymphadenopathy-associated virus (LAV),” J. Immun. Meth. 76, 171-183, 1985) without PBA or fungizone and supplemented with 7% (v/v) interleukin-2 (Advanced Biotechnologies, Silver Spring, Md.), 7 μg/ml DEAE-dextran (Pharmacia, Uppsala, Sweden), and 370 U/ml anti-human leukocyte (alpha) interferon (ICN, Lisle, Ill.). Virus obtained from cell-free culture supernatant was titrated and stored in aliquots at −70° C. until use.
Inhibition of Virus Replication in Human PBMC: Uninfected PHA-stimulated human PBMC were uniformly distributed among 25 cm^2 flasks to give a 5 ml suspension containing about 2×10^6 cells/ml. Suitable dilutions of virus were added to infect the cultures. The mean reverse transcriptase (RT) activity of the inocula was 50,000 dpm/ml corresponding to about 100 TCID50, as determined by Groopman, et al., (1987), “Characterization of Serum Neutralization Response to the Human Immunodeficiency Virus (HIV),” AIDS Res. Human Retro. 3, 71-85. The drugs, at twice their final concentrations in 5 ml of RPMI 1640 medium (supplemented as described above), were added to the cultures. Uninfected and untreated PBMC at equivalent cell densities were grown in parallel as controls. The cultures were maintained in a humidified 5% CO2-95% air incubator at 37° C. for six days after infection at which point all cultures were sampled for supernatant RT activity.
RT Activity Assay: A […] aliquot of supernatant from each culture was clarified of cells at 300×g for 10 minutes. […]
The RT assay was performed in 96-well microtiter plates, as described by Spira, et al. (1987), “Micromethod for Assaying the Reverse Transcriptase of LAV-HTLV-III/Lymphadenopathy-Associated Virus,” J. Clin. Microbiol. […] Four ml of scintillation fluid (Econofluor, NEN Research Products, Boston, Mass.) were added and the amount of radioactivity in each sample was determined using a Packard Tri-Carb liquid scintillation analyzer (model 2,000CA). […]

EC50 (HIV (LAV-I); Human immunodeficiency virus 1, PBMC, light/dark not stated, read-out: EC50 (P24)): 6.4 nM | EC50 (HSV-2 (G strain)): > 100000 nM | EC50 (HSV-1 (F strain)): > 100000 nM | EC50 (HIV-1 (strain LAV-1)): 0.22 nM
SMILES: Cc1cn([C@H]2C[C@H](N=[N+]=[N-])[C@@H](CO)O2)c(=O)[nH]c1=O [AZT, 3′-azido-3′-deoxythymidine]
ng P24/ml (HIV (LAV-I); 0.0001 μM): 360.7 ng P24/ml | ng P24/ml (HIV (LAV-I); 0.001 μM): 266.2 ng P24/ml | ng P24/ml (HIV (LAV-I); 0.01 μM): 36.1 ng P24/ml | ng P24/ml (HIV (LAV-I); 0.1 μM): 5.2 ng P24/ml | inhibition at 0.0001 µM (HIV (LAV-I); Human immunodeficiency virus 1, PBMC, 0.0001 μM, read-out: % Inhibition (corrected)): -0.5% | inhibition at 0.001 µM (HIV (LAV-I); Human immunodeficiency virus 1, PBMC, 0.001 μM, read-out: % Inhibition (corrected)): 25.8% | inhibition at 0.01 µM (HIV (LAV-I); Human immunodeficiency virus 1, PBMC, 0.01 μM, read-out: % Inhibition (corrected)): 89.9% | inhibition at 0.1 µM (HIV (LAV-I); Human immunodeficiency virus 1, PBMC, 0.1 μM, read-out: % Inhibition (corrected)): 98.5%
